For test [1], the system named is T1, PAL from Anabaena flos-aquae (A. flos-aquae PAL).
T1 construct: native enzyme purified from algal culture (acetone precipitation, Sephadex G-200, DEAE-cellulose); 64 kDa band on SDS-PAGE
Briefly: forward deamination assay, cinnamic acid absorbance at […] nm. The class given is biochemical, Dolichospermum flosaquae. The note with it: Tris-HCl pH 8.9; standard assay at 37 °C.

Test [2] concerns T2, PAL from Spirulina platensis (S. platensis PAL).
T2 construct: native enzyme purified from algal culture (acetone precipitation, Sephadex G-200, DEAE-cellulose); 64 kDa band on SDS-PAGE
The test is described as above. The following applies: Tris-HCl pH 8.9; standard assay at 37 °C. It is filed as biochemical, Limnospira platensis.

Test [3] relates to T1, PAL from Anabaena flos-aquae (A. flos-aquae PAL). The experiment in a line: reverse hydroamination assay, L-phenylalanine formation at […] nm. The class given is biochemical, Dolichospermum flosaquae. The note with it: co-substrate NH4OH (stock 5 M); Tris-HCl pH 8.9; standard assay at 37 °C.
In test [4] the test system is T2, PAL from Spirulina platensis (S. platensis PAL). Described as above. The following applies: co-substrate NH4OH (stock 5 M); Tris-HCl pH 8.9 (standard assay); 37 °C. It is filed as biochemical, Limnospira platensis.

On to `N[C@@H](Cc1ccccc1)C(=O)O` [L-phenylalanine], for which the Michaelis-Menten constant (Km) (as a rule, the substrate concentration at which the rate is half of its maximum) in test [1] was 1500 µM; in test [2] it was 1640 µM.

Consider `O=C(O)/C=C/c1ccccc1` [trans-cinnamic acid], for which the Km in test [3] was 300 µM; in test [4] it was 610 µM.

The values are drawn from publication PMC9728195, “Purification and Characterization of Anabaena flos-aquae Phenylalanine Ammonia-Lyase as a Novel Approach for Myristicin Biotransformation” (Journal of Microbiology and Biotechnology, 2019).
